Marks after values point to notes of the source that are not given here.
How the values were obtained:
adjuvant arthritis mice [1] = assay: Adjuvant arthritis mice: joint pathology damage (HE staining); assay type: in vivo, Kunming mice; conditions: koumine 0.8, 4, 20 mg/kg intragastric; Day 19; dose dependent
Protocol: (§1) BCG was inactivated in water bath at 80° C., and fully emulsified along with complete Freund's adjuvant to form complete Freund's adjuvant emulsion containing 5 mg/ml BCG, preserved at 4° C., and shake well before use. The Kunming mice were divided into a modeling group and a false modeling group. According to the method recited in the literature [Rasool M, Sabina E P, Lavanya B. Anti-inflammatory effect of Spirulina fusiformis on adjuvant-induced arthritis in mice. Biol Pharm Bull. 2006, 29(12):2483-7], for the modeling group, the model was prepared by intradermal injection of 20 ul the emulsion under the plantar surface of right paws after the mice was narcotized; for the false modeling group, the emulsion was replaced with physiological saline. For the modeling group, the animals were screened on Day 8 after injection: the mice with the injected paw thickness increased >0.5 mm and thermal hyperalgesia occurred (paw thermal withdrawal latency <8 second) were selected as experimental subjects. The selected mice were divided into 5 groups randomly: low, middle, high dose treatment group (0.8, 4, 20 mg/kg); indomethacin positive control group (10 mg/kg); negative control group (physiological saline), each comprising 12 animals. […]

adjuvant arthritis mice [2] = assay: Adjuvant arthritis mice: phlogogenic paw swelling (paw thickness); assay type: in vivo, Kunming mice; conditions: koumine 0.8, 4, 20 mg/kg intragastric once daily; Day 4-18 after inflammation
Protocol: as §1, with “subjects.” for “subjects. The selected mice were divided into 5 groups randomly: low, middle, high dose treatment group (0.8, 4, 20 mg/kg); indomethacin positive control group (10 mg/kg); negative control group (physiological saline), each comprising 12 animals.”
According to Methodology of Pharmacological Experiment (Shuyun Xu, Rulian Bian: Methodology of Pharmacological Experiment [M], 3rd Ed., People's Medical Publishing House: 912-913), paw thickness was selected as a paw swelling index and was measured using vernier caliper, measuring timing is the same as above, each measurement repeats 3 times and the average was taken (similarly hereinafter).

adjuvant arthritis mice [3] = assay: Adjuvant arthritis mice: hyperalgesia (phlogogenic paw thermal withdrawal latency); assay type: in vivo, Kunming mice
Protocol: BCG was inactivated in water bath at 80° C., and fully emulsified along with complete Freund's adjuvant to form complete Freund's adjuvant emulsion containing 5 mg/ml BCG, preserved at 4° C., and shake well before use. The Kunming mice were divided into a modeling group and a false modeling group. According to the method recited in the literature [Rasool M, Sabina E P, Lavanya B. Anti-inflammatory effect of Spirulina fusiformis on adjuvant-induced arthritis in mice. Biol Pharm Bull. 2006, 29(12):2483-7], for the modeling group, the model was prepared by intradermal injection of 20 ul the emulsion under the plantar surface of right paws after the mice was narcotized; for the false modeling group, the emulsion was replaced with physiological saline. For the modeling group, the animals were screened on Day 8 after injection: the mice with the injected paw thickness increased >0.5 mm and thermal hyperalgesia occurred (paw thermal withdrawal latency <8 second) were selected as experimental subjects. The selected mice were divided into 5 groups randomly: low, middle, high dose treatment group (0.8, 4, 20 mg/kg); indomethacin positive control group (10 mg/kg); negative control group (physiological saline), each comprising 12 animals. Day 8 after inflammation, intragastric administration was carried out on each group to give corresponding intervention, one time per day for 10 days continuously.
30 min after intragastric administration, the phlogogenic paw thermal withdrawal latency of the mice in each group was determined by photo-thermal dolorimeter to reflect animals' hyperalgesia status.

[4] = system: type II collagen-induced arthritis rat; assay: Type II collagen-induced arthritis rat: paw swelling degree and arthritis index; assay type: in vivo, Wistar rat; conditions: koumine 0.6, 3, 15 mg/kg intragastric; Day 5, Day 10 of intervention; dose dependent
Protocol: (§2) Under aseptic conditions, 10 mg chicken type II collagen protein was fully mixed with 5 ml 10 mM glacial acetic acid solution, and stirred overnight in refrigerator at 4° C. to fully dissolve it. It was mixed with complete Freund's adjuvant in equal volume in ice bath to fully emulsify into an emulsion with a collagen concentration of 1 mg/ml.
(§3) Wistar rats are divided into a modeling group and a false modeling group. After the modeling group rats were narcotized with intraperitoneal injection of pentobarbital, the above emulsion was injected intracutaneously at 3 to 4 positions at back, tail root or the like, 0.3 ml for each, an primary immunity was carried out. After 7 days, a secondary immunity was carried out, the emulsifying agent complete Freund's adjuvant of initial immunity was replaced with incomplete Freund's adjuvant, 0.1 ml the emulsion was injected under sevoflurane inhalation anesthesia wherein the injection position is different from the last time. In false modeling group, the emulsion was replaced with solvent glacial acetic acid solution.
Successfully modeled rat in the modeling group were randomly divide into 5 groups: low, middle, high-dose koumine treatment group, positive control group, negative control group, 10 rats for each group. […]

adjuvant arthritis mice [5] = assay: Adjuvant arthritis mice: condition and body weight; assay type: in vivo, Kunming mice
Protocol: as §1

[6] = system: type II collagen-induced arthritis rat; assay: Type II collagen-induced arthritis rat: mechanical hyperalgesia (Von-frey mechanical pain threshold); assay type: in vivo, Wistar rat; conditions: koumine 0.6, 3, 15 mg/kg intragastric; dose-effect relationship
Protocol: as §2
as §3, with “In false modeling group, the emulsion was replaced with solvent glacial acetic acid solution.” left out
1 hour after intragastric administration, the thermal withdrawal latency of each group was determined by the photo-thermal dolorimeter; the mechanical pain threshold of rats of each group was determined by Von-frey electromechanical pain threshold detector, thus the condition of thermal hyperalgesia and mechanical hyperalgesia of rats of each group was observed.

in vivo = conditions: mouse, sc
[7] = koumine 0.8 mg/kg intragastric once daily from Day 8
[8] = koumine 4 mg/kg intragastric once daily from Day 8
[9] = koumine 20 mg/kg intragastric once daily from Day 8

Structure (SMILES): C=CC12CN(C)C3CC14C(=Nc1ccccc14)C1CC2C3CO1 (stereo not drawn) [Koumine]
- Effect on joint pathology damage, HE staining (FIG. 3) (adjuvant arthritis mice [1]): can improve the inflammatory cell infiltration, synovial hyperplasia, bone destruction
- Effect on phlogogenic paw thickness (FIG. 2) (adjuvant arthritis mice [2]): reduces the phlogogenic paw thickness of adjuvant arthritis mice in dose and time-dependent manner
- Thermal stimulus withdrawal latency, Before intervention (adjuvant arthritis mice [3]; koumine 0.8 mg/kg intragastric once daily for 10 days from Day 8 after inflammation): 14.1 ± 1.1 s
- Thermal stimulus withdrawal latency, Intervention Day 4 (adjuvant arthritis mice [3]; [7]): 5.9 ± 1.3^★★ second
- Thermal stimulus withdrawal latency, Intervention Day 8 (adjuvant arthritis mice [3]; [7]): 4.9 ± 1.1^★★ second
- Thermal stimulus withdrawal latency, Intervention Day 12 (adjuvant arthritis mice [3]; [7]): 4.9 ± 1.0*^★ second
- Thermal stimulus withdrawal latency, Intervention Day 16 (adjuvant arthritis mice [3]; [7]): 5.9 ± 1.0**^★ second
- Thermal stimulus withdrawal latency, Intervention Day 18 (adjuvant arthritis mice [3]; [7]): 6.1 ± 1.2**^★★ second
- Thermal stimulus withdrawal latency, Before intervention (adjuvant arthritis mice [3]; koumine 4 mg/kg intragastric once daily for 10 days from Day 8 after inflammation): 13.6 ± 1.1 s
- Thermal stimulus withdrawal latency, Intervention Day 4 (adjuvant arthritis mice [3]; [8]): 5.8 ± 1.5^★★ second
- Thermal stimulus withdrawal latency, Intervention Day 8 (adjuvant arthritis mice [3]; [8]): 4.3 ± 0.8 s
- Thermal stimulus withdrawal latency, Intervention Day 12 (adjuvant arthritis mice [3]; [8]): 6.7 ± 1.9**^★ second
- Thermal stimulus withdrawal latency, Intervention Day 16 (adjuvant arthritis mice [3]; [8]): 7.8 ± 1.9**^★ second
- Thermal stimulus withdrawal latency, Intervention Day 18 (adjuvant arthritis mice [3]; [8]): 8.4 ± 1.8**^★★ second
- Thermal stimulus withdrawal latency, Before intervention (adjuvant arthritis mice [3]; koumine 20 mg/kg intragastric once daily for 10 days from Day 8 after inflammation): 13.9 ± 1.1 s
- Thermal stimulus withdrawal latency, Intervention Day 4 (adjuvant arthritis mice [3]; [9]): 6.1 ± 1.4^★★ second
- Thermal stimulus withdrawal latency, Intervention Day 8 (adjuvant arthritis mice [3]; [9]): 4.7 ± 1.5^★★ second
- Thermal stimulus withdrawal latency, Intervention Day 12 (adjuvant arthritis mice [3]; [9]): 9.2 ± 1.2**^★ second
- Thermal stimulus withdrawal latency, Intervention Day 16 (adjuvant arthritis mice [3]; [9]): 10.7 ± 1.2**^★★ second
- Thermal stimulus withdrawal latency, Intervention Day 18 (adjuvant arthritis mice [3]; [9]): 10.8 ± 1.1**^★★ second
- Effect on thermal stimulus withdrawal latency (summary of Table 1) (adjuvant arthritis mice [3]; koumine 0.8, 4, 20 mg/kg intragastric, dose-effect and time-effect relationships): can significantly extend the thermal stimulus withdrawal latency
- Effect on arthritis index (FIG. 7) [4]: reduces arthritis index
- Effect on paw swelling, paw volume (FIG. 6) [4]: relieves the paw swelling
- Effect on body weight of adjuvant arthritis mice (FIG. 1) (adjuvant arthritis mice [5]; koumine 0.8, 4, 20 mg/kg intragastric once daily, Day 4-18 after inflammation): dose dependent antagonistic effect on body weight reducing
- Food intake and activity after inflammation (adjuvant arthritis mice [5]; koumine treatment group 0.8, 4, 20 mg/kg intragastric, negative control decreased obviously): no obvious change was observed
- Effect on mechanical pain threshold (summary of Table 4) [6]: improve mechanical pain threshold
- LD50 (in vivo): 99 mg/kg

— US9078890B2, “Use of koumine and its homologues in preparation of medicament for treatment of autoimmune diseases of involved bones and joints” (priority 2011, dated 2015)
